From US7683097B2, “Topoisomerase inhibitors” (Propharmacon Inc., priority 2004, dated 2010) come the findings set out here.

For experiment [1], the system named is HL-60. The experiment is described as follows: Cell proliferation assay, Leukemia HL-60. The note with it: Homo sapiens, read-out: GI50 or IC50, Leukemia HL-60. It counts as cell-based. The method, then: (§1) The compounds listed in Table III were prepared using the procedures outlined in the above Examples.
The test system of experiment [2] is SF-268. The experiment is described as follows: Cell proliferation assay, CNS Cancer SF-268. The note with it: Homo sapiens, read-out: GI50 or IC50, CNS Cancer SF-268. It counts as cell-based. The method, then: as §1
Experiment [3] has as its system UO-31. The experiment is described as follows: Cell proliferation assay, Renal Cancer UO-31. The settings on record: Homo sapiens, read-out: GI50 or IC50, Renal Cancer UO-31. Format: cell-based. The method, then:
(§2) The compounds listed in Table IV were prepared using the procedures outlined in the above Examples.

Experiment [4] concerns PC-3. Kind of experiment: Cell proliferation assay, Prostate Cancer PC-3. The settings on record: Homo sapiens, read-out: GI50 or IC50, Prostate Cancer PC-3. It counts as cell-based. The method, then:
as §2

The test system of experiment [5] is MES-SA/Dx5. The experiment is described as follows: Cell proliferation assay, Uterine MES-SA/Dx5. It counts as cell-based. The settings on record: Homo sapiens, read-out: GI50 or IC50, Uterine MES-SA/Dx5. The method, then: as §2
Experiment [6] has as its system HCT-15. The experiment is described as follows: Cell proliferation assay, Colon Cancer HCT-15. It counts as cell-based. The note with it: Homo sapiens, read-out: GI50 or IC50, Colon Cancer HCT-15. The method, then: as §1
The subject of experiment [7] is SK-MEL-2. Kind of experiment: Cell proliferation assay, Melanoma SK-MEL-2. It counts as cell-based. The settings on record: Homo sapiens, read-out: GI50 or IC50, Melanoma SK-MEL-2. The protocol: as §2
Experiment [8] relates to NCI-ADR. Kind of experiment: Cell proliferation assay, Breast Cancer NCI-ADR. It counts as cell-based. The note with it: Homo sapiens, NCI/ADR-RES; read-out: GI50 or IC50, Breast Cancer NCI-ADR. The method, then:
as §2

Experiment [9] relates to NCI-H460. Kind of experiment: Cell proliferation assay, NSC Lung Cancer NCI-H460. Format: cell-based. The note with it: Homo sapiens, read-out: GI50 or IC50, NSC Lung Cancer NCI-H460. The method, then: as §1
Experiment [10] deals with H69-AR (MDR). Kind of experiment: Cell proliferation assay, SC Lung Cancer H69-AR (MDR). It counts as cell-based. The settings on record: Homo sapiens, H69AR; read-out: GI50 or IC50, SC Lung Cancer H69-AR (MDR). The protocol: as §1
Experiment [11] concerns OVCAR-3. Kind of experiment: Cell proliferation assay, Ovarian Cancer OVCAR-3. The note with it: Homo sapiens, read-out: GI50 or IC50, Ovarian Cancer OVCAR-3. Format: cell-based. The protocol: as §2
The test system of experiment [12] is HL60-MX1 (MDR). The experiment is described as follows: Cell proliferation assay, Leukemia HL60-MX1 (MDR). The settings on record: read-out: GI50 or IC50, Leukemia HL60-MX1 (MDR). Format: cell-based. The method, then: as §1
Experiment [13] concerns MCF-7. Kind of experiment: Cell proliferation assay (panel), Breast Cancer MCF-7. The note with it: Homo sapiens, MCF7; read-out: GI50 or IC50, Breast Cancer MCF-7. Format: cell-based. The method, then:
as §2

In experiment [14] the test system is calf thymus DNA. Kind of experiment: DNA-intercalator displacement assay (EtBr displacement). Format: binding. The note with it: FIG. 4. The text has this: The curve labeled “Hoechst” corresponds to Hoechst 33258. Controls are: 1) no EtBr (min. fluorescence) and 2) no compound (max. fluorescence).
(§3) Gel retardation assays were done on 320 and other biaryl/terphenyl acid compounds, to test for electrophoretic mobility shifts due to the presence of a substance that directly binds DNA.

The test system of experiment [15] is NCI-H460. The experiment is described as follows: NCI-H460 human xenograft study in nude mice. The settings on record: i.v., 320 25 mg/Kg days 1-5, etoposide 35 mg/Kg days 7, 10, 14; for anti-tumor activity with respect to final tumor volume: doxorubicin 5 mg/Kg days 7 and 14, day 28. A general note: A xenograft is tissue or cells of one species grown in another, often human tumour cells in immunodeficient mice.
Experimental: An acute toxicological study was performed for 320 prior to the xenograft study. Two groups (n=3) of female CD-1 mice were injected intraperitoneally (i.p.) with either 10 or 100 mg/Kg of 320 dissolved in 5% DMSO, 10% PEG400. […] A second MTD study was done by the intravascular (i.v.) route using 4 groups of CD-1 mice for the following: vehicle, 3, 10 and 30 mg/Kg injections which were to be given daily for days 1-5 and study duration of two weeks, at which point survivors would be euthanised.
All injections were by the i.v. route; groups were 5 NCR nu/nu mice. The cell line NCI-H460 was used to produce the tumors that appeared by day 7. […] All survivors to day 28 were euthanised at this time and tumor volumes measured.

Experiment [16] concerns the target TopoIIα-DNA covalent complex (Homo sapiens, UniProt P11388). Kind of experiment: Topo IIα DNA covalent complex stabilization assay. It counts as biochemical. The note with it: SDS trapping, proteinase K, FIG. 5. The text has this:
To determine if the compound 320 stabilizes the TopoIIα-DNA covalent complex, cleavage intermediates are trapped by the addition of SDS to the reaction (Wilson Byl, J. A., et al., Biochemistry, 40, 712-718, 2001). After proteinase K digestion to digest any covalently bound Topo, the products are electrophoresed and stained with EtBr. The appearance of an additional band that is a linear form of the 2.5 Kb minicircle product is indicative of a compound's ability to stabilize the covalent complex.

The subject of experiment [17] is pBR322 plasmid. The experiment is described as follows: Gel retardation assay (electrophoretic mobility shift). Format: binding.
Excerpt: as §3
On the technique in general: A gel shift assay detects complexes by their altered migration in electrophoresis.

The target of experiment [18] is T1, human Topo IIα (Homo sapiens, UniProt P11388).
T1 construct: purchased Topogen Inc. Columbus, Ohio
T1 sequence (P11388 whole entry): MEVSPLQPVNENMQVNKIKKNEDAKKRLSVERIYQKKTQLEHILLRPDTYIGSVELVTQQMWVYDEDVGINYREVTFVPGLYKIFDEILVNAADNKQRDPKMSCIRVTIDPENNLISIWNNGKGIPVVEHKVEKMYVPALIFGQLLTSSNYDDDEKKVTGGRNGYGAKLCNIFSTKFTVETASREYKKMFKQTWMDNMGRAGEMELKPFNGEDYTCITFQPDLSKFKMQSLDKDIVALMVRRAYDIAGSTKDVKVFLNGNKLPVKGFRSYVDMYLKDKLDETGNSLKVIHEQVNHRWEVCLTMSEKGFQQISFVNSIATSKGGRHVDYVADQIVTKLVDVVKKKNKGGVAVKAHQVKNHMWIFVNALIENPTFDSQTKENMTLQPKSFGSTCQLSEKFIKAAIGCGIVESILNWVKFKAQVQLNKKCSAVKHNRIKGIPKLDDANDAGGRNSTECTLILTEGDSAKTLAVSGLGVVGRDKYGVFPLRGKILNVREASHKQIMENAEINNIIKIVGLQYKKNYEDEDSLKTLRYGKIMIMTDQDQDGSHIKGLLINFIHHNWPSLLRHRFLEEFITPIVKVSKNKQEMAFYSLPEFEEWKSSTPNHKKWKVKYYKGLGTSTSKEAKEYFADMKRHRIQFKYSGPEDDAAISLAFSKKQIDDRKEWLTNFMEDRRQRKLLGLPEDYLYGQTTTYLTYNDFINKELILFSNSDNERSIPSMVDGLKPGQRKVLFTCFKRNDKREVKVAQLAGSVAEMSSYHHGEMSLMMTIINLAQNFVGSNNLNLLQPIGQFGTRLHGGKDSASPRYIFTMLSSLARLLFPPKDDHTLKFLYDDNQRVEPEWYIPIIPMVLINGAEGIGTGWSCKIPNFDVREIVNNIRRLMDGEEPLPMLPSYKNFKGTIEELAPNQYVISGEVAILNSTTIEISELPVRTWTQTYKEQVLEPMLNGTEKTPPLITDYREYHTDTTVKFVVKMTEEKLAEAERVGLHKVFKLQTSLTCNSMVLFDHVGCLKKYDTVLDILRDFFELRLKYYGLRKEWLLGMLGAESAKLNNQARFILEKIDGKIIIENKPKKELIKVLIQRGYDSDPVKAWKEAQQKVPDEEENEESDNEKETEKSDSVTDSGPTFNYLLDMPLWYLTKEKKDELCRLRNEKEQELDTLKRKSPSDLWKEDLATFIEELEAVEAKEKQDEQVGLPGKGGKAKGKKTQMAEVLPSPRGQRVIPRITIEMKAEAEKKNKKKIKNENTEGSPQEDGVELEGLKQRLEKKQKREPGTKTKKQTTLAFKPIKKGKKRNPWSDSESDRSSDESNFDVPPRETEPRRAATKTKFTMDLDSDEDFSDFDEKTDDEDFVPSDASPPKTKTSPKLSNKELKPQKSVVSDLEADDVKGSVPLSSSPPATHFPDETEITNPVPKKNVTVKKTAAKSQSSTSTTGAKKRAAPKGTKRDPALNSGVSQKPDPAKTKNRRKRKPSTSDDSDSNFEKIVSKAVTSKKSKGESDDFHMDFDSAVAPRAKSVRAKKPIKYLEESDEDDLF
Kind of experiment: Topo IIα decatenation inhibition assay (kDNA, agarose gel). It counts as biochemical. The note with it: sample gel, FIG. 2; kDNA substrate.
Excerpt: When present, high molecular weight kDNA has not migrated from the loading well.
The enzyme assays used for determining Topo IIα inhibition was either the ATP-dependent decatenation of high molecular weight kDNA (kinetoplast) as substrate or the relaxation of supercoiled pBR322 each incorporating human Topo IIα (Topogen Inc. Columbus, Ohio) and following literature protocols (Fortune, J. M. et al., J. Biol. Chem., 273(28), 17643-50 1998; Muller, M. T. et al., Biochemistry, 27(22), 8369-79, 1988). The 2.5 Kd mini-circle product derived from the catenated substrate is resolved on an agarose gel with ethidium bromide staining after electrophoresis. Likewise, the relaxed form of pBR322 is resolved from the faster moving supercoiled form during electrophoresis.

Experiment [19] relates to MCF-7/ADR. Kind of experiment: Cell proliferation assay, MDR line MCF-7/ADR. The note with it: 48 hrs exposure; less potent in MCF-7/ADR. It counts as cell-based, human. The text has this: The MCF-7 cell line, the MDR cell line, and the MCF-7/ADR cell line were used. Alamar Blue™ was used to quantitate cell viability.

TopoIIα-DNA covalent complex, sequence (P11388 whole entry, one chain of several): as the sequence (P11388 whole entry) above

As for `O=C(Nc1ccncn1)c1ccc(Cl)c(-c2ccc(-c3ccccc3)cc2)c1` [Compound 37, 6-Chloro-[1,1′;4′,1″]terphenyl-3-carboxylic acid pyrimidin-4-ylamide], the IC50 in experiment [1] is 1000 to 25000 nM; in [2], 1000 to 25000 nM; in experiment [3] it was 1000 to 25000 nM; in experiment [4], 1000 to 25000 nM; in [5], ≤ 1000 nM; in [6], 1000 to 25000 nM. Also, the IC50 is > 25000 nM in experiment [7]; ≤ 1000 nM in experiment [8]; 1000 to 25000 nM in [9]; ≤ 1000 nM in experiment [10]; > 25000 nM in experiment [11]; ≤ 1000 nM in [12]. In addition, the IC50 in experiment [13] lay in the range of 1000 to 25000 nM.

As for `COc1ccc(NC(=O)c2ccc(Cl)c(-c3ccc(-c4ccccc4)cc3)c2)cn1` [Compound 8, 6-Chloro-[1,1′;4′,1″]terphenyl-3-carboxylic acid (6-methoxy-pyridin-3-yl)-amide], the IC50 in [1] was ≤ 1000 nM; in [2] it was ≤ 1000 nM; in experiment [3], 1000 to 25000 nM; in [4], ≤ 1000 nM; in experiment [5] it was ≤ 1000 nM; in experiment [6], ≤ 1000 nM. The IC50 in experiment [7] was 1000 to 25000 nM; in [8] it was ≤ 1000 nM; in experiment [9] it was ≤ 1000 nM; in [10] it was ≤ 1000 nM; in [11] it was ≤ 1000 nM; in [12], 1000 to 25000 nM. The IC50 in experiment [13] was > 25000 nM.

With `CN1CCN(c2ccc3[nH]c(-c4ccc5[nH]c(-c6ccc(O)cc6)nc5c4)nc3c2)CC1` [Hoechst 33258], in experiment [14], the “IC50 of EtBr displacement” value was “low μM” and the “displacement of EtBr (intercalator) from DNA” value is on record as “clearly demonstrates displacement of EtBr”.

`COc1cc([C@@H]2c3cc4c(cc3[C@@H](O[C@@H]3O[C@@H]5CO[C@@H](C)O[C@H]5[C@H](O)[C@H]3O)[C@H]3COC(=O)[C@H]23)OCO4)cc(OC)c1O` [etoposide]: in experiment [15], the “initial tumor growth delay” value is listed as “greatest initial growth delay” and the “anti-tumor activity with respect to final tumor volume” value is “greatest anti-tumor activity”. Also, the “stabilization of the TopoIIα-DNA covalent complex (linear form of minicircle)” value in experiment [16] is listed as “the linear form is present”.

As for `O=C(NC1CCNCC1)c1ccc(Cl)c(-c2ccc(-c3ccccc3)cc2)c1` [Compound 43, 6-Chloro-[1,1′;4′,1″]terphenyl-3-carboxylic acid piperidin-4-ylamide], the IC50 is 1000 to 25000 nM in experiment [1]; 1000 to 25000 nM in experiment [2]; 1000 to 25000 nM in experiment [3]; 1000 to 25000 nM in experiment [4]; ≤ 1000 nM in [5]; 1000 to 25000 nM in experiment [6]. The IC50 in experiment [7] was 1000 to 25000 nM; in experiment [8], ≤ 1000 nM; in experiment [9] it was 1000 to 25000 nM; in experiment [10] it was ≤ 1000 nM; in [11], 1000 to 25000 nM; in experiment [12] it was ≤ 1000 nM. Besides, the IC50 in [13] lay in the range of 1000 to 25000 nM.

As for `COc1cccc2c1C(=O)c1c(O)c3c(c(O)c1C2=O)C[C@@](O)(C(=O)CO)C[C@@H]3O[C@H]1C[C@H](N)[C@H](O)[C@H](C)O1` [doxorubicin, reference compound], the “anti-tumor activity with respect to final tumor volume” value in experiment [15] was “least efficacy”. For the same compound, the “mobility shift of pBR322 plasmid on gels” value in experiment [17] is “Mobility shifts were seen”. Besides, the “inhibition of Topo IIα decatenation” value in experiment [18] is listed as “partial inhibition”. Further, the “shift in potency, resistant line MCF-7/ADR versus parent line MCF-7” value in [19] was found to be 100 fold.

For the compound `O=C(Nc1cnccn1)c1ccc(Cl)c(-c2ccc(-c3ccccc3)cc2)c1` [Compound 5, 6″-Chloro-[1,1′;4′,1″]terphenyl-3″-carboxylic acid pyrazin-2-ylamide], the IC50 in experiment [1], in experiment [2], in experiment [3], in experiment [4], in experiment [5] and in [6] was ≤ 1000 nM in each case. Besides, the IC50 is 1000 to 25000 nM in [7]; ≤ 1000 nM in [9]; ≤ 1000 nM in experiment [10]; ≤ 1000 nM in experiment [11]; ≤ 1000 nM in experiment [12]; ≤ 1000 nM in experiment [13].

Take `O=C(NC1=NCCS1)c1ccc(Cl)c(-c2ccc(-c3ccccc3)cc2)c1` [Compound 33, 6″-Chloro-[1,1′;4′,1″]terphenyl-3″-carboxylic acid (4,5-dihydro-thiazol-2-yl)-amide]: the IC50 is 1000 to 25000 nM in [1]; 1000 to 25000 nM in experiment [2]; 1000 to 25000 nM in [3]; 1000 to 25000 nM in [4]; > 25000 nM in [6]; 1000 to 25000 nM in experiment [7]. Also, the IC50 in experiment [9], in experiment [11] and in [13] was 1000 to 25000 nM throughout.

Regarding `O=C(NCC1CCCO1)c1ccc(Cl)c(-c2ccc(-c3ccccc3)cc2)c1` (stereo not drawn) [Compound 58, 6-Chloro-[1,1′;4′,1″]terphenyl-3-carboxylic acid (tetrahydro-furan-2-ylmethyl)-amide], the IC50 in experiment [1] is 1000 to 25000 nM; in experiment [2], 1000 to 25000 nM; in [3] it was 1000 to 25000 nM; in [4], 1000 to 25000 nM; in [5], ≤ 1000 nM; in experiment [6] it was 1000 to 25000 nM. Also, the IC50 is 1000 to 25000 nM in [7]; ≤ 1000 nM in experiment [8]; 1000 to 25000 nM in [9]; ≤ 1000 nM in experiment [10]; 1000 to 25000 nM in experiment [11]; 1000 to 25000 nM in experiment [12]. In addition, in experiment [13], the IC50 was in the range of 1000 to 25000 nM.

`CN(C)CCN(C(=O)c1ccc(Cl)c(-c2ccc(-c3ccccc3)cc2)c1)c1cccnc1` [Compound 52, 6-Chloro-[1,1′;4′,1″]terphenyl-3-carboxylic acid (2-dimethylamino-ethyl)-pyridin-3-yl-amide]: the IC50 in experiment [1] is 1000 to 25000 nM; in [2], 1000 to 25000 nM; in [3] it was 1000 to 25000 nM; in experiment [4], 1000 to 25000 nM; in experiment [5] it was ≤ 1000 nM; in [6] it was 1000 to 25000 nM. For the same compound, the IC50 in experiment [7], in experiment [8], in experiment [9], in experiment [10], in experiment [11] and in [12] was 1000 to 25000 nM throughout. The IC50 in experiment [13] was 1000 to 25000 nM.

`O=C(O)C1c2ccccc2CCN1C(=O)c1ccc(Cl)c(-c2ccc(-c3ccccc3)cc2)c1` (stereo not drawn) [Compound 337, 2-(6″-Chloro-[1,1′;4′,1″]terphenyl-3″-carbonyl)-1,2,3,4-tetrahydro-isoquinoline-1-carboxylic acid]: in [14], the “displacement of EtBr (intercalator) from DNA” value was “lack of intercalator displacement”.
